The values below come from US4990531A, “Derivatives of 1-arylsulphonyl-2-pyrrolidinone and their use as medicaments” (Roussel Uclaf, priority 1988, dated 1991).

The term IC50 denotes the concentration at which inhibition is half-maximal.

In experiment [1] the target is dopamine receptor. As to the kind of experiment: Affinity for other receptors: dopamine. It is filed as binding. To be noted: negligible affinity.
For experiment [2], the system named is isolated ileum. As to the kind of experiment: Agonist action on isolated guinea-pig ileum. The settings on record: negative logarithm of the dose producing 50% of maximum effect. The method, then:
(§1) The interaction of the compounds with various receptors was evaluated on the isolated ileum of a guinea-pig according to the following method.
(§2) Segments of the ileum of guinea-pigs of 2.5-3 cm were washed and immediately suspended in a bath containing 10 ml of Tyrode's solution at 37° C. and aerated with a mixture of oxygen (95%) and carbon dioxide (5%). After a stabilization period of at least 30 minutes contractions were recorded, while the preparation was maintained under constant tension of 1 g, by means of a detector connected to a polygraph. The agonistic action was evaluated by leaving the compound in contact with the isolated tissue for a period necessary to show the maximum […]; then it was washed with the Tyrode's solution. The following dose was added only after the preparation had returned to its base line. Arecoline was used as a reference product. The antagonist action was evaluated on the contractions induced by acetylcholine (1×10^-6 M), histamine (1×10^-5 M), serotonine (1×10^-6 M) and barium chloride (2×10^-4 M). […] The contact time before adding the agonist was one minute.
(§3) For each compound the does response curves are obtained with 4 to 6 different concentrations and 3 to 5 independent tests. The agonist activity is expressed by pD2 (negative logarithm of the dose which produces 50% of the maximum effect).

For experiment [3], the target named is T1, muscarine receptors, involved in the contractions of the colon (Rattus norvegicus, UniProt P08483).
T1 construct: segments of the colon of rats of about 2.5 cm; from tissue; host or cells: isolated rat colon segments
As to the kind of experiment: Antagonist affinity and type of antagonism (Schild), isolated colon of rat. The settings on record: for "Slope" of Schild plot, isolated colon of rat / Kb: cumulative acetylcholine, Schild's method, contact 5 min; for Kb: read-out: pA2, isolated colon of rat (converted); for displacement of the dose-response curve of acetylcholine: isolated colon of rat, in words. The method, then: The following method was used: segments of the colon of rats of about 2.5 cm are washed and suspended in an insulated bath containing 10 ml of a solution of De Jalon having the following composition: (mM): NaCl 154; KCl 5.7; CaCl2 0.27; NaHCO3 5.9 and glucose 2.5. The temperature of the bath is maintained at 32° C. In these conditions, while maintaining the preparation under a tension of 1 g, the spontaneous activity of the colon is minimal. After a stabilization period of at least 30 minutes, the tension variations are recorded using an isometric transducer connected to a recorder. A series of tests was carried out to evaluate the antagonist activity in relation to the contractions induced by a maximum dose of acetylcholine. (3×10^-6 M).
For each compound the dose-response curves are obtained with 4 to 6 different concentrations and 3 to 5 independent tests.
In a second series of tests the acetylcholine is added to the bath in cumulative doses according to the van Rossum method (J. M. van Rossum, Arch, Int. Pharmacodyn. 143, 299, 1963). Having obtained two equal and consecutive dose-response curves with acetylcholine, a third dose-responsecurve is obtained in the presence of the compound (contact time of compound before acetylcholine=5 min.) Each compound was tested with 3-4 different concentrations
The antagonist affinity and the type of antagonism (competitive, non-competitive) for the muscarine receptors was calculated according to Schild's method (H. D. Schild, Brit. J. Pharmacol. 2, 189, 1947).

Experiment [4] has as its target serotonine 5 HT2 receptor (Homo sapiens, UniProt P28223). The experiment in a line: Affinity for other receptors: serotonine 5 HT2. It is filed as binding. The settings on record: negligible affinity.
Experiment [5] addresses GABA receptor. As to the kind of experiment: Affinity for other receptors: GABA. It is filed as binding. To be noted: negligible affinity.
Experiment [6] has as its system cholinomimetic effects induced by carbachol. The experiment in a line: In vivo anticholinergic action: inhibition of carbachol-induced cholinomimetic effects. More on the design: species or system CD1 male mice. The settings on record: i.p.; for ED50 / ED (1 degree C): Mus musculus, ip, 0.5 h, carbachol 1 mg/kg s.c. 30 min later; for ED (1 degree C): rectal temperature, read-out: Body Temperature: dose able to increase by 1° C. the hypothermic effect induced by carbachol; for selective anticholinergic action in vivo: mice, in words. The method, then: The anticholinergic activity of the compounds was determined by evaluating the capacity to inhibit cholinomimetic effects induced by carbachol. Atropine sulphate was used as reference product.
CD1 male mice are used weighing 25 to 30 g. They are divided into groups of 5 animals and treated by intraperitoneal route, in scaled doses, with the products or with 0.25% of Methocel for the controls. 10 animals are used for each dose. 30 minutes after the administration of the compounds, the mice are subcutaneously injected with 1 mg/kg of carbachol, dissolved in physiological serum.
Each animal was examined 30 minutes after the injection of carbachol to evaluate the presence of diarrhea, salivation and watering of the eyes; the body temperature was also measured using a thermocouple inserted 1.5 cm into the rectum.
For each compound, there was determined, and recorded in the following table, the dose able to inhibit, in 50% of the animals, the appearance of peripheral cholinomimetic symptoms induced by carbachol, and to increase by 1° C. the hypothermic effect induced by the cholinergic agent.

Experiment [7] addresses adrenoreceptor beta 2 (Homo sapiens, UniProt P07550). The experiment in a line: Affinity for other receptors: adrenoreceptor beta 2. The format is binding. The settings on record: negligible affinity.
Experiment [8] concerns contractions induced by histamine, isolated ileum. As to the kind of experiment: Antagonism of histamine-induced contractions, isolated guinea-pig ileum. To be noted: histamine 1×10^-5 M; contact time one minute; read-out: Antagonism with various agents (IC50): Istam. On the procedure: as §1, §2, §3
Experiment [9] deals with contractions induced by acetylcholine, isolated ileum. As to the kind of experiment: Antagonism of acetylcholine-induced contractions, isolated guinea-pig ileum. The settings on record: acetylcholine 1×10^-6 M; contact time one minute; read-out: Antagonism with various agents (IC50): Ach. On the procedure:
as §1, §2, §3

The target in experiment [10] is adrenoreceptor alpha 1. The experiment in a line: Affinity for other receptors: adrenoreceptor alpha 1. It is filed as binding. The settings on record: negligible affinity.
For experiment [11], the target named is adrenoreceptor alpha 2. The experiment in a line: Affinity for other receptors: adrenoreceptor alpha 2. It is filed as binding. To be noted: negligible affinity.
Experiment [12] deals with opiated receptor kappa (Homo sapiens, UniProt P41145). As to the kind of experiment: Affinity for other receptors: opiated receptor kappa. To be noted: negligible affinity. It is filed as binding.
Experiment [13] deals with benzodiazepine receptor. As to the kind of experiment: Affinity for other receptors: benzodiazepines. It is filed as binding. To be noted: negligible affinity.
The target in experiment [14] is adrenoreceptor beta 1 (Homo sapiens, UniProt P08588). As to the kind of experiment: Affinity for other receptors: adrenoreceptor beta 1. The format is binding. The settings on record: negligible affinity.
In experiment [15] the test system is contractions induced by barium chloride, isolated ileum. As to the kind of experiment: Antagonism of barium chloride-induced contractions, isolated guinea-pig ileum. The settings on record: barium chloride 2×10^-4 M; contact time one minute; read-out: Antagonism with various agents (IC50): BaCL2. On the procedure:
as §1, §2, §3

Setting [16] is: read-out: dose able to inhibit, in 50% of the animals, Diarrhea.
Where [17] appears, read: read-out: dose able to inhibit, in 50% of the animals, Salivation.
[18] abbreviates: read-out: dose able to inhibit, in 50% of the animals, Watering of Eyes.

The structures appear in SMILES notation. Where two headings read alike, the source gives them in different places.

T1 sequence (P08483 whole entry): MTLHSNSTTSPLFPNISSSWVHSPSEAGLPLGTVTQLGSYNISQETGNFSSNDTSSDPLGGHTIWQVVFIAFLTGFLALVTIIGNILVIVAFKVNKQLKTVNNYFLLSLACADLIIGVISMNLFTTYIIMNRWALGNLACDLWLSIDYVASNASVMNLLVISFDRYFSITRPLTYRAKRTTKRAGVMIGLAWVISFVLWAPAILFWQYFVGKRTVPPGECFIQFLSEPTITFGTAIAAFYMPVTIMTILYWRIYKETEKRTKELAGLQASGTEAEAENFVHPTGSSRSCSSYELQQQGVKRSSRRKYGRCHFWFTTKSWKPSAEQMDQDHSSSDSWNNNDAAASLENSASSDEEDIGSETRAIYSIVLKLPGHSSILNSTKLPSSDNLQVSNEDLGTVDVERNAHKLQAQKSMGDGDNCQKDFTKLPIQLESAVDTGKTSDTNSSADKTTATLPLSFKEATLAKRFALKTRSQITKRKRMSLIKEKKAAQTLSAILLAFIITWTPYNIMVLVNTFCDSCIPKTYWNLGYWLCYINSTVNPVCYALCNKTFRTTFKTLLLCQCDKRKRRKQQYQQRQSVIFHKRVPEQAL
Chain of opiated receptor kappa (P41145 whole entry): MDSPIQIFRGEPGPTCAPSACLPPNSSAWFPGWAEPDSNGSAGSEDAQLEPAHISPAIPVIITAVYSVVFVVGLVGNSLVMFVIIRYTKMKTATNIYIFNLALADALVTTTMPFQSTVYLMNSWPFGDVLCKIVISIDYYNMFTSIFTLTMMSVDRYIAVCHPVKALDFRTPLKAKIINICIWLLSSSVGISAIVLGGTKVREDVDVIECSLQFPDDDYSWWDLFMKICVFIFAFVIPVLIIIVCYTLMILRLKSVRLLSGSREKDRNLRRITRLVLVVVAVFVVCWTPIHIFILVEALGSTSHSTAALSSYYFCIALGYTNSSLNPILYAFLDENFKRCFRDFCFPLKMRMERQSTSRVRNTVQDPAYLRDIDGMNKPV
Chain of adrenoreceptor beta 1 (P08588 whole entry): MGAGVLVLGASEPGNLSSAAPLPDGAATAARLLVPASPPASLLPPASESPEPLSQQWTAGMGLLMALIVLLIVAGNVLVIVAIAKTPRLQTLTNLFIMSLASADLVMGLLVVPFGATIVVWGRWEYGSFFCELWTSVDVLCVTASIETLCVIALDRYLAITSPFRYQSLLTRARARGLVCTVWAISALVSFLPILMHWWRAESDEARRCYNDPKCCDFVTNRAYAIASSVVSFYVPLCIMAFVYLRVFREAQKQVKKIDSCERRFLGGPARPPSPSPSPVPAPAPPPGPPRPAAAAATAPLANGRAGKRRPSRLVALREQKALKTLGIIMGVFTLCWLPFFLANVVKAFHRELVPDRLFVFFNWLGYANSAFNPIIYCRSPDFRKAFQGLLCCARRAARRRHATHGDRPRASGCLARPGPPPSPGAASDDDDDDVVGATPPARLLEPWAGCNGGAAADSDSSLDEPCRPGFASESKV
Chain of adrenoreceptor beta 2 (P07550 whole entry): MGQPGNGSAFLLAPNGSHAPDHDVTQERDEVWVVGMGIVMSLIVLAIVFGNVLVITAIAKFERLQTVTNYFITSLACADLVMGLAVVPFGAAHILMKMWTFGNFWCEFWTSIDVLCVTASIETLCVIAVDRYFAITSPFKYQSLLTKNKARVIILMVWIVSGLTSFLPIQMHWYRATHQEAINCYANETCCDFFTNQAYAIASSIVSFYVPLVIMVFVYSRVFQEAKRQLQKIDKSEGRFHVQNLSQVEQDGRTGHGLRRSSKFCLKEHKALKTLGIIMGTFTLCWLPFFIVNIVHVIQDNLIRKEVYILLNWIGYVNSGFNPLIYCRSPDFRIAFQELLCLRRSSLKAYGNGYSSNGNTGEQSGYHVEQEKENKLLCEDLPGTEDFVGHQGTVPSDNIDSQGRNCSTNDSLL
Chain of serotonine 5 HT2 receptor (P28223 whole entry): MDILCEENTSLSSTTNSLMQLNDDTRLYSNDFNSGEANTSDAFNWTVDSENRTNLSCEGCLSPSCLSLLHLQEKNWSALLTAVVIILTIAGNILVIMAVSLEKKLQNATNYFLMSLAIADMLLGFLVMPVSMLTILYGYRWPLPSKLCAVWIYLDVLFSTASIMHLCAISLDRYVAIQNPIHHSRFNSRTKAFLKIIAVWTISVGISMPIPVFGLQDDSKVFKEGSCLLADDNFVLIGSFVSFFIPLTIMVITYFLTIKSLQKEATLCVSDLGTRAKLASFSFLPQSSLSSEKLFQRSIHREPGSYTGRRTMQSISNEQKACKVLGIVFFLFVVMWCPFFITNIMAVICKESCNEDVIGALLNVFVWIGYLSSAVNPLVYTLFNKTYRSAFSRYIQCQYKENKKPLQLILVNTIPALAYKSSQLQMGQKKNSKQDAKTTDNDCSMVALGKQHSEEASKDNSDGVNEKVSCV

As for `CCN(CC)c1ccc(S(=O)(=O)N2CCCC2=O)cc1` [Example 2, 1-[4-(diethylamino)benzenesulphonyl]-2-pyrrolidinone], the 50% inhibitory concentration (IC50) in experiment [1] is 5 to 10 µM; in experiment [4], 5 to 10 µM; in experiment [5], 5 to 10 µM; in experiment [7], 5 to 10 µM; in [8] it was greater than 100 µM; in experiment [9], 0.062 µM. The IC50 in experiment [10] is 5 to 10 µM; in experiment [11], 5 to 10 µM; in experiment [12], 5 to 10 µM; in experiment [13], 5 to 10 µM; in experiment [14], 5 to 10 µM; in experiment [15], 6 µM. For the same compound, in [2], the “Agonist Action (pD2)” value is listed as less than 4. Also, the “"Slope" of Schild plot, isolated colon of rat” value in experiment [3] was 1.08. For the same compound, the Kb in [3] was 0.0447 µM. In experiment [3], the “displacement of the dose-response curve of acetylcholine” value was “parallel displacement towards the right of the dose-response curve of acetyl-choline without reducing the maximum contraction”. The ED50 in experiment [6] (setting [16]) was 7 mg/kg; in [6] (setting [17]) it was greater than 50 mg/kg; in [6] (setting [18]), greater than 50 mg/kg. In experiment [6], the ED (1 degree C) was greater than 50 mg/kg. In addition, in experiment [6], the “selective anticholinergic action in vivo” value was “selective anticholinergic action on the intestinal musculature”.
Regarding `CC(C)(C)c1ccc(S(=O)(=O)N2CCCC2=O)cc1` [Example 1, 1-(4-tert-butylbenzenesulphonyl)-2-pyrrolidinone], the IC50 in experiment [1] was 5 to 10 µM; in [4], 5 to 10 µM; in [5], 5 to 10 µM; in experiment [7], 5 to 10 µM; in experiment [8], greater than 100 µM; in experiment [9], 0.064 µM. The IC50 in [10] was 5 to 10 µM; in experiment [11], 5 to 10 µM; in [12], 5 to 10 µM; in [13], 5 to 10 µM; in experiment [14], 5 to 10 µM; in [15], 16 µM. In addition, in experiment [2], the “Agonist Action (pD2)” value is listed as less than 4. The “"Slope" of Schild plot, isolated colon of rat” value in experiment [3] turned out to be 0.89. For the same compound, in experiment [3], the Kb is 0.017 µM. In addition, the “displacement of the dose-response curve of acetylcholine” value in experiment [3] is reported as “parallel displacement towards the right of the dose-response curve of acetyl-choline without reducing the maximum contraction”. Also, the values for the ED50 in [6] (setting [16]), in [6] (setting [17]) and in experiment [6] (setting [18]) were 7 mg/kg, 10 mg/kg and greater than 50 mg/kg, respectively. Besides, the ED (1 degree C) in experiment [6] is 50 mg/kg. Moreover, in [6], the “selective anticholinergic action in vivo” value is “selective anticholinergic action on the intestinal musculature”.
